Each structure is given as a SMILES string. Read-outs that look alike come from different tables or passages of the source.

One assay has as its system A-549. Description: MTT cytotoxicity assay, A-549. Format: cell-based. Conditions: Homo sapiens, read-out: IC50 A-549. From the text: (§1) Anticancer assays: Five tumor cell lines (MiaPaca-2 (CRL-1420), a carcinoma pancreatic […]; Hep G2 (HB-80665), a perpetual cell line which was derived from the liver tissue of a […] with a well-differentiated hepatocellular carcinoma; A549 (CCL-185), a carcinoma lung from […]; A2058 (CRL-11147), Human skin melanoma from an adult derived from lymph node and MCF-7 (HTB-22), a breast adenocarcinoma […]) were obtained from ATCC. The MTT (3-(4,5-dimethylthiazol-2-yl)-2,5-diphenyltetrazoliumbromide) colorimetric assay, which measures mitochondrial metabolic activity, was employed to estimate the amount of living cells. According to the huge amount of celles to be plated, SelecT (TAP Biosystems, Royston, UK), a cell culture robotic system was used to process ten thousand cells per well (for 72 h assay). Cells were seeded at a concentration of 1× 10^4 cells/well in 200 μl culture medium and incubated at 37 °C in 5% CO2. After 24 h, the automated liquid-handling system Biomek FX (Beckman Coulter, Pasadena, CA, USA) was used to replace the medium with a final volume of 200 μL and 1 μL of compound (dilution 1/200) and to add controls to the plates and which were then be incubated for 72 h. The test compounds were examined in triplicate with serial two-fold dilutions. After incubation, MTT solution was prepared at 5 mg/mL in PBS 1X and then diluted at 0.5 mg/mL in MEM without phenol red. The sample solution in wells was removed and 100 μL of MTT dye was added to each well. The plates were gently shaken and incubated for 3 h at 37 °C in 5% CO2 incubator. The supernatant was removed and 100 μL of DMSO 100% was added. The plates were gently shaken to solubilize theoriginated formazan and absorbance at 570 nm was read in a Victor2 Wallac spectrofluorometer (PerkinElmer, Waltham, MA, USA). IC50 values were calculated as the concentration that decreases 50% of the cell viability using Genedata Screener software (Genedata AG, Basel, Switzerland). Curve fitting followed the Smart Fit strategy with Hill model selection.

In the next assay the test system is MiaPaca-2. Description: MTT cytotoxicity assay, MiaPaca-2. Particulars: Homo sapiens, read-out: IC50 MiaPaca-2. Format: cell-based.
Description: as §1
For orientation: Formazan colour is commonly taken as a measure of viable cells.

For another assay, the system named is P. falciparum strain 3D7. Description: P. falciparum 3D7 lactate dehydrogenase assay. Type of assay: cell-based, Plasmodium falciparum. Particulars: for IC50: read-out: IC50 against P. falciparum; for times more active than natural precursor quercetin 3-O-α-L-rhamnopyranoside (2) against P. falciparum: antiplasmodial activity, strain 3D7; for SI = IC50 HepG2 cell/IC50 P. falciparum: selectivity index, HepG2 vs P. falciparum. As for the experimental part:
P. falciparum 3D7 lactate dehydrogenase assay: Parasites of the P. falciparum strain 3D7 were grown in fresh group 0 positive human erythrocytes, obtained from the Centro Regional de Transfusion Sanguınea-SAS (Granada, Spain). This assay was performed in duplicate for each compound using a sixteen (16) point dose response curve (½ serial dilutions) with concentrations starting from 50 μM until 1.5 nM to determine the IC50s of the compounds. Adding 25 μL of P. falciparum 3D7 parasite culture (per well) containing parasitized red blood cells at 0.25% parasitaemia and 2% haematocrit in RPMI-1640, 5% Albumax II, 2% […] 0.3% glutamine and 150 μM hypoxanthine and incubated at 37 °C for 72 h with 5% CO2, 5% O2 and 95% N2. For negative and positive growth controls, 10 μM chloroquine and complete parasite growth medium were respectively used. The final readouts of the assay was done by measuring the absorbance of the reactions at 650 nm in an Envision plate reader (Perkin Elmer, USA) and the results analysed by Genedata software (GenedataAG, Basel, Switzerland), parasite growth was measured by LDH assay as previously described.
The natural compounds isolated from the leaves of A. zygia as well as their semi-synthetic derivatives were tested against Plasmodium falciparum (Table 1) using a microdilution method in liquid medium as previously described.

The subject of another assay is HepG2. Description: MTT cytotoxicity assay, HepG2. Format: cell-based. Particulars: Homo sapiens, read-out: IC50 HepG2.
Description: as §1

A further assay deals with MCF-7. Description: MTT cytotoxicity assay, MCF-7. Particulars: Homo sapiens, MCF7, 72 h, read-out: IC50 MCF-7. Format: cell-based.
Description: as §1

Another assay concerns A2058. Description: MTT cytotoxicity assay, A2058. Format: cell-based. Particulars: Homo sapiens, A2058, 72 h, read-out: IC50 A2058.
Description: as §1

Setting [1] is: Plasmodium falciparum, 3D7, 72 h, strain 3D7, 72 h, LDH readout.
Setting [2] is: Plasmodium falciparum, 3D7, 72 h.

The term IC50 denotes the midpoint of a concentration-inhibition curve. On to `CC(=O)Oc1cc(O)c2c(=O)c(OC3OC(C)C(OC(C)=O)C(OC(C)=O)C3OC(C)=O)c(-c3ccc(O)c(O)c3)oc2c1` (stereo not shown) [Compound 10], for which the IC50 in the assay with A-549 (A549, MTT, 72 h) amounted to 30.5 ± 0.25 µM; in the assay on MiaPaca-2 (MIA PaCa-2, MTT, 72 h), 64.9 ± 0.25 µM; in the assay on P. falciparum strain 3D7 (setting [1]), 6.77 ± 0.25 µM; in the assay on P. falciparum strain 3D7 (strain 3D7, 72 h, LDH readout) it was 6.8 ± 0.25 µM; with HepG2 (HepG2, MTT, 72 h), 64.9 ± 0.25 µM. Moreover, the “times more active than natural precursor quercetin 3-O-α-L-rhamnopyranoside (2) against P. falciparum” value in the assay on P. falciparum strain 3D7 is on record as “over 3 times”.

Take `C[C@@H]1O[C@@H](Oc2c(-c3ccc(O)c(O)c3)oc3cc(O)cc(O)c3c2=O)[C@H](O)[C@H](O)[C@H]1O` [Compound 2, quercetin 3-O-α-L-rhamnopyranoside]: the IC50 in the assay on A-549 (A549, 72 h) was 89.5 ± 0.25 µM; in the assay on MiaPaca-2 (MIA PaCa-2, 72 h) it was 87.5 ± 0.25 µM; in the assay on P. falciparum strain 3D7 (setting [2]), 25.1 ± 0.25 µM; with HepG2 (HepG2, 72 h), 87.5 ± 0.25 µM; in the assay on MCF-7, 87.5 ± 0.25 µM; in the assay with A2058 it was 87.5 ± 0.25 µM. Also, the “SI = IC50 HepG2 cell/IC50 P. falciparum” value with P. falciparum strain 3D7 is on record as “(3.49)”.

Turning to `C[C@@H]1O[C@@H](Oc2ccc(-c3oc4cc(O)cc(O)c4c(=O)c3O[C@@H]3O[C@@H](C)[C@H](O)[C@@H](O)[C@H]3O)cc2O)[C@H](O)[C@H](O)[C@H]1O` [Compound 4, quercetin 3,4′-di-O-α-L-rhamnopyranoside], the IC50 with A-549 (A549, MTT, 72 h) was 34.6 ± 0.25 µM; in the assay with MiaPaca-2 (MIA PaCa-2, MTT, 72 h) it was 17.3 ± 0.25 µM; in the assay on P. falciparum strain 3D7 (setting [1]), > 100 µM; in the assay on HepG2 (HepG2, MTT, 72 h), 17.3 ± 0.25 µM; in the assay on MCF-7 (MTT, 72 h) it was 17.3 ± 0.25 µM; with A2058 (MTT, 72 h) it was 34.6 ± 0.25 µM.

`CC(=O)OC1C(C)OC(Oc2c(-c3ccc(O)c(O)c3)oc3cc(O)cc(O)c3c2=O)C(OC(C)=O)C1OC(C)=O` (stereo not shown) [Compound 9]: the IC50 in the assay with A-549 (A549, MTT, 72 h) amounted to 34.8 ± 0.25 µM; in the assay with MiaPaca-2 (MIA PaCa-2, MTT, 72 h), 17.4 ± 0.25 µM; in the assay with P. falciparum strain 3D7 (setting [1]), 7.47 ± 0.25 µM; in the assay on P. falciparum strain 3D7 (strain 3D7, 72 h, LDH readout), 7.5 ± 0.25 µM; in the assay on HepG2 (HepG2, MTT, 72 h), 22.6 ± 0.25 µM; in the assay with MCF-7 (MTT, 72 h), 10.8 ± 0.25 µM. Further, in the assay on A2058 (MTT, 72 h), the IC50 was 12.2 ± 0.25 µM. The “times more active than natural precursor quercetin 3-O-α-L-rhamnopyranoside (2) against P. falciparum” value in the assay on P. falciparum strain 3D7 was “over 3 times”.

Regarding `COc1cccc2c1C(=O)c1c(O)c3c(c(O)c1C2=O)C[C@@](O)(C(=O)CO)C[C@@H]3O[C@H]1C[C@H](N)[C@H](O)[C@H](C)O1` [Doxorubicin, reference compound], the concentration for half-maximal inhibition (IC50) is < 7e-05 µM in the assay on A-549 (A549, MTT, 72 h); < 7e-05 µM in the assay with MiaPaca-2 (MIA PaCa-2, MTT, 72 h); < 7e-05 µM in the assay on HepG2 (HepG2, MTT, 72 h); < 7e-05 µM with MCF-7 (MTT, 72 h); < 7e-05 µM in the assay on A2058 (MTT, 72 h).

With `CC(=O)OCC1OC(Oc2cc(OC(C)=O)ccc2CC(=O)O)C(OC(C)=O)C(OC(C)=O)C1OC(C)=O` (stereo not shown) [Compound 8], the IC50 with A-549 (A549, MTT, 72 h) is 20.1 ± 0.25 µM; in the assay on MiaPaca-2 (MIA PaCa-2, MTT, 72 h) it was 18.5 ± 0.25 µM; with P. falciparum strain 3D7 (setting [1]), > 100 µM; with HepG2 (HepG2, MTT, 72 h), 40.2 ± 0.25 µM; with MCF-7 (MTT, 72 h), 40.2 ± 0.25 µM; in the assay with A2058 (MTT, 72 h) it was 40.2 ± 0.25 µM.

`CC(=O)OCC1OC(Oc2cc(O)ccc2CC(=O)O)C(OC(C)=O)C(OC(C)=O)C1OC(C)=O` (stereo not shown) [Compound 7]: the IC50 with A-549 (A549, MTT, 72 h) is 20.1 ± 0.25 µM; in the assay with MiaPaca-2 (MIA PaCa-2, MTT, 72 h), 10 ± 0.25 µM; in the assay on P. falciparum strain 3D7 (setting [1]), > 100 µM; in the assay with HepG2 (HepG2, MTT, 72 h), 37 ± 0.25 µM; with MCF-7 (MTT, 72 h), 37 ± 0.25 µM; with A2058 (MTT, 72 h) it was 37 ± 0.25 µM.

Regarding `CCN(CC)CCCC(C)Nc1ccnc2cc(Cl)ccc12` (stereo not shown) [Chloroquine, chloroquine, reference compound], the 50% inhibitory concentration (IC50) with P. falciparum strain 3D7 (setting [2]) was 0.00296 µM.

`C[C@@H]1O[C@@H](Oc2ccc(-c3oc4cc(O)cc(O)c4c(=O)c3O[C@@H]3O[C@@H](C)[C@H](O)[C@@H](O)[C@H]3O)cc2)[C@H](O)[C@H](O)[C@H]1O` [Compound 5, kaempferol 3,4′-di-O-α-L-rhamnopyranoside]: the IC50 was 33.7 ± 0.25 µM in the assay on A-549 (A549, MTT, 72 h); 16.8 ± 0.25 µM in the assay on MiaPaca-2 (MIA PaCa-2, MTT, 72 h); > 100 µM with P. falciparum strain 3D7 (setting [1]); 16.8 ± 0.25 µM with HepG2 (HepG2, MTT, 72 h); 33.7 ± 0.25 µM in the assay on MCF-7 (MTT, 72 h); 33.7 ± 0.25 µM in the assay on A2058 (MTT, 72 h).

For `O=C(O)Cc1ccc(O)cc1OC1OC(CO)C(O)C(O)C1O` [Compound 1, 2-O-β-D-glucopyranosyl-4-hydroxyphenylacetic acid], the IC50 with A-549 (A549, MTT, 72 h) is 121.2 ± 0.25 µM; in the assay on MiaPaca-2 (MIA PaCa-2, MTT, 72 h), 30.3 ± 0.25 µM; in the assay with P. falciparum strain 3D7 (setting [1]) it was > 100 µM; with HepG2 (HepG2, MTT, 72 h), 121.2 ± 0.25 µM; in the assay on MCF-7 (MTT, 72 h), 42.7 ± 0.25 µM; in the assay with A2058 (MTT, 72 h), 66.7 ± 0.25 µM.

Turning to `C[C@@H]1O[C@@H](Oc2c(-c3ccc(O)cc3)oc3cc(O)cc(O)c3c2=O)[C@H](O)[C@H](O)[C@H]1O` [Compound 3, kaempferol 3-O-α-L-rhamnopyranoside], the IC50 was determined as 23.2 ± 0.25 µM in the assay on A-549 (A549, MTT, 72 h); 46.4 ± 0.25 µM with MiaPaca-2 (MIA PaCa-2, MTT, 72 h); 19 ± 0.25 µM in the assay with P. falciparum strain 3D7 (setting [1]); 23.2 ± 0.25 µM in the assay on HepG2 (HepG2, MTT, 72 h); 46.4 ± 0.25 µM with MCF-7 (MTT, 72 h); 46.4 ± 0.25 µM with A2058 (MTT, 72 h). Besides, the “SI = IC50 HepG2 cell/IC50 P. falciparum” value in the assay on P. falciparum strain 3D7 was “(1.22)”.

Source of the values: PMC7076739, “Cytotoxycity and antiplasmodial activity of phenolic derivatives from Albizia zygia (DC.) J.F. Macbr. (Mimosaceae)” (BMC Complementary Medicine and Therapies, 2020).
